Measured values from patent US6892140B1, “Immunogenic cancer peptides and uses thereof” (Enteron, Inc., priority 2000, dated 2005).
Ends that are not written are not given here.

Tested on: antibodies in sera from prostate cancer patients
Experiment: Prostate cancer serum test of cell surface protein peptides (Table 3)
Type: binding, human
Design: key: +: positive or negative reactivity between peptides representing modified peptide regions of cancer cell surface protein molecules with antibodies in sera from prostate cancer patients; −: positive or negative reactivity between peptides representing modified peptide regions of cancer cell surface protein molecules with antibodies in sera from prostate cancer patients
Settings: reactivity of peptide with antibodies in sera from prostate cancer patients
From the text: Table 3 third column illustrates the positive or negative reactivity between peptides representing modified peptide regions of cancer cell surface protein molecules with antibodies in sera from prostate cancer patients. The presence or absence in prostate cancer cells of the 41 tested molecules is shown as + or − in column four.
Sixth, employing the immunoassays disclosed herein, each biotinylated peptide is screened as an antigen against sera or other relevant biological fluids containing antibodies taken from one of the following groups: cancer patients, patients with benign lesions or inflammatory conditions, and healthy subjects. Peptides can also be screened using tumor-infiltrating lymphocytes or peripheral blood-born lymphocytes from cancer patients. Candidate peptides we consider cancer-specific or cancer-associated depend on whether they fit the following definitions.

Row | Substance | Prostate Cancer Serum Test Result
1 | IrNes: Tested peptide of cell surface protein integrin alpha 5 (LRNES; not fully specified) | −
2 | NhSeg: Tested peptide of cell surface protein CD44 (NHSEG; not fully specified) | +
3 | aeNct: Tested peptide of cell surface protein erbB-4 (AENCT; not fully specified) | −
4 | crNvs: Tested peptide of cell surface protein erbB-1 (CRNVS; not fully specified) | −
5 | daNkt: Tested peptide of cell surface protein erbB-1 (DANKT; not fully specified) | +
6 | deNit: Tested peptide of cell surface protein tgfr beta type II (DENIT; not fully specified) | +
7 | diNss: Tested peptide of cell surface protein fgfr4 (DINSS; not fully specified) | −
8 | dkNls: Tested peptide of cell surface protein N-Cadherin (DKNLS; not fully specified) | +
9 | dkNst: Tested peptide of cell surface protein CD38 (DKNST; not fully specified) | −
10 | drNgt: Tested peptide of cell surface protein CD44 (DRNGT; not fully specified) | +
11 | drNhs: Tested peptide of cell surface protein integrin alpha 2 (DRNHS; not fully specified) | −
12 | drNht: Tested peptide of cell surface protein CD46 (DRNHT; not fully specified) | −
13 | dtNrs: Tested peptide of cell surface protein erbB-2 (DTNRS; not fully specified) | +
14 | eeNns: Tested peptide of cell surface protein pdgfr alpha (EENNS; not fully specified) | −
15 | ekNdt: Tested peptide of cell surface protein integrin alpha (v) (EKNDT; not fully specified) | −
16 | ekNgs: Tested peptide of cell surface protein fgfr2 (EKNGS; not fully specified) | −
17 | esNrt: Tested peptide of cell surface protein fgfr1 (ESNRT; not fully specified) | −
18 | evNss: Tested peptide of cell surface protein integrin beta 6 (EVNSS; not fully specified) | −
19 | eyNts: Tested peptide of cell surface protein tgfr beta type II (EYNTS; not fully specified) | +
20 | gdNrt: Tested peptide of cell surface protein protein-tyrosine phosphatase kappa (GDNRT; also: biotin label, end not given here) | −
21 | ghNes: Tested peptide of cell surface protein protein-tyrosine phosphatase kappa (GHNES; also: biotin label, end not given here) | −
22 | gtNkt: Tested peptide of cell surface protein CD40 (GTNKT; also: biotin label, end not given here) | +
